The text below walks through data of PMC6271477, “Effects of Single Amino Acid Substitution on the Biophysical Properties and Biological Activities of an Amphipathic α-Helical Antibacterial Peptide Against Gram-Negative Bacteria” (Molecules, 2014).

Data set [1] in a line: Analytical RP-HPLC retention time as a measure of peptide hydrophobicity. It is filed as physicochemical. The note with it: RP-HPLC at 25 °C, Zorbax 300 SB-C8 column, linear AB gradient, A 0.1% aqueous TFA, B 0.1% TFA in acetonitrile, 1 mL/min, detection at 210 nm. The procedure:
Among substitutions, the retention times ranged from 32.2 min (peptide V16K) to 40.4 min (peptide V16L), which reflect the pure effects of single amino acid substitutions. Thus, the retention times of peptides reflect the relative hydrophobicity of side chains. Consistent with previous studies, the hydrophobicity of peptide analogs was generally in the following order: Lys < Gly < Ser < Ala < Val < Leu. Glu-substituted peptide was an exception, as it contains a negatively-charged side chain and this should decrease the hydrophobicity of the peptide dramatically.
Peptides were analyzed on a Shimadzu LC-20A HPLC using a Zorbax 300 SB-C8 column (150 ° 4.6 mm i.d., 5 μm particle size, 300 Å pore size) from Agilent Technologies using a linear AB gradient and a flow rate of 1 mL/min, where solvents A and B were as described above. Absorbance signals of peptides were detected at 210 nm.

Data set [2] in a line: CD spectroscopy, helicity in benign buffer and in 50% TFE. The conditions noted are these: for [θ]222, mean residue molar ellipticity, benign / [θ]222, mean residue molar ellipticity, 50% TFE: CD at 222 nm, peptide 75 μM; for [θ]222, mean residue molar ellipticity, benign / [θ]222, mean residue molar ellipticity, 50% TFE / % helix, 50% TFE: 25 °C; for [θ]222, mean residue molar ellipticity, benign: KP buffer (100 mM KCl, 50 mM K2HPO4/KH2PO4, pH 7.0); for [θ]222, mean residue molar ellipticity, 50% TFE / % helix, 50% TFE: KP buffer diluted 1:1 (v/v) with TFE; for % helix, 50% TFE / % helix, benign: relative to the molar ellipticity of peptide V16E in 50% TFE; for % helix, benign: KP buffer pH 7.0, 25 °C. In kind it is physicochemical. The procedure:
The secondary structures of peptides were determined in benign buffer and in a hydrophobic environment (50% trifluoroethanol, TFE) to mimic the hydrophobic environment of the membrane. […] The principle of side chain interaction at the i to i + 3 and i to i + 4 positions has been used to promote α-helix stability, for example, the incorporation of Lys and Glu residues to stabilize electrostatic attractions. Thus, the helicity of peptide V16E in the presence of 50% TFE that presented the greatest value among all analogs should rely on the contribution of the electrostatic attraction of the side chain of K13 and E16, which stabilizes the helix. The relative helicity is 100% for peptide V16E in 50% TFE, showing the importance of the salt bridges of K13 and E16 to stabilize the helical structure. In general, subtle side-chain alterations by single amino acid substitutions made no significant changes on secondary structures both in aqueous and in hydrophobic environments (Table 2).
Circular dichroism spectra were measured with a 0.02 cm path length quartz cuvette on a Jasco J-810 spectropolarimeter (Jasco, Tokyo, Japan) at 25 °C. Data were collected from 250 to 190 nm at a sensitivity of 100 millidegrees, response time of 1 s, bandwidth of 1.0 nm and a scan speed of 100 nm/min. Peptides were measured at a concentration of 75 μM in a benign buffer (50 mM KH2PO4/K2HPO4, 100 mM KCl, pH 7) or the benign buffer mixed with 50% 2,2,2-trifluoroethanol (TFE). The mean residue molar ellipticities were calculated using the equation [θ] = θ/10lcMn, where θ is the ellipticity in millidegrees, l is the optical path length of the cuvette in centimeters, cM is the peptide concentration in mole/liter and n is the number of residues in the peptide.

Data set [3] has as its system E. coli DH5α. The data set can be described thus: MIC by broth dilution. In kind it is cell-based. The conditions noted are these: MH broth, 5 × 10^5 CFU/mL, 24 h at 37 °C. On the procedure: (§1) Minimal inhibitory concentrations (MIC) were determined using a broth dilution method. Briefly, bacteria were grown overnight at 37 °C in Mueller–Hinton (MH) Broth, diluted in the same medium and transferred into 96-well microtiter plates (90 μL/well). Peptides were serially diluted using 0.2% bovine serum albumin containing 0.01% acetic acid and added to the microtiter plates in a volume of 10 μL per well to give a final concentration of 5 × 10^5 CFU/mL. MICs were defined as the lowest peptide concentration that inhibited bacterial growth after incubation for 24 h at 37 °C.

Data set [4] in a line: Tryptophan fluorescence, binding to lipid vesicles. The note with it: for Tryptophan fluorescence emission maximum: excitation 280 nm. The procedure:
Upon peptide diffusion into the cytoplasmic membrane, evidence of selective interaction between peptides with bacterial versus mammalian cytoplasmic membrane was illustrated by the binding events of the peptides to anionic or zwitterionic lipid vesicles. […] Lipid/peptide (L/P) ratios were maintained high enough at low peptide concentration (2 μM) in order to mimic the initial steps of peptide-membrane binding. The spectra were recorded as shown in Supplementary Figure S1. […] The significant blue shifts of Δλmax (17 to 23 nm) for all peptides upon exposure to PC/PG vesicles indicated a membrane partition state of Trp in negatively charged vesicles containing 30% anionic lipids (PG).
Unilamellar vesicles were prepared by a standard procedure with either PC/PG (7:3, w/w) or PC/cholesterol (8:1, w/w) as described previously. Briefly, the desired mixtures of lipids were dissolved in a chloroform/methanol mixture (2:1, v/v), dried under nitrogen and then lyophilized for 24 h to remove traces of organic solvent. Dry lipid films were suspended in 10 mM HEPES buffer containing 150 mM NaCl (pH 7.4) by vortex mixing. After five freeze-thawing cycles, the suspension was extruded 15 times through double polycarbonate membranes with 0.1 μm diameter pores on an Avanti mini-extruder apparatus. The lipid concentration was determined by phosphorus analysis as previously reported.
(§2) Fluorescence emission spectra of peptide Trp residues were monitored by a Shimadzu RF-5301 spectrofluorometer. The excitation of wavelength was set as 280 nm and the emission spectra of each peptide, with or without lipid vesicles, were recorded between 300 and 450 nm. Thus three curves were recorded for each peptide, in HEPES buffer or with either PC/PG vesicles or PC/cholesterol vesicles. The blue shift of Trp residues in vesicles were referred to in buffer condition. The final concentrations of peptide and lipid were 2 μM and 100 μM (1/50), respectively.

The nature of data set [5]: Tryptophan fluorescence in HEPES buffer. The conditions noted are these: peptide 2 μM, excitation 280 nm. In kind it is physicochemical.
Excerpt: Upon peptide diffusion into the cytoplasmic membrane, evidence of selective interaction between peptides with bacterial versus mammalian cytoplasmic membrane was illustrated by the binding events of the peptides to anionic or zwitterionic lipid vesicles. The repositioning of the tryptophan indole group in an environment of reduced polarity upon membrane binding results in a blue shift in the fluorescence […] maximum coupled with an enhancement of emission intensity. Lipid/peptide (L/P) ratios were maintained high enough at low peptide concentration (2 μM) in order to mimic the initial steps of peptide-membrane binding. The spectra were recorded as shown in Supplementary Figure S1. […] The significant blue shifts of Δλmax (17 to 23 nm) for all peptides upon exposure to PC/PG vesicles indicated a membrane partition state of Trp in negatively charged vesicles containing 30% anionic lipids (PG).
as §2

Data set [6] deals with P. aeruginosa ATCC27853. In kind it is cell-based. The note with it: ATCC27853, 24 h. The procedure: as §1
For data set [7], the system named is E. coli Clinical Isolate. It is filed as cell-based. The note with it: Clinical Isolate, 24 h. On the procedure:
as §1

The test system of data set [8] is P. aeruginosa H188. It is filed as cell-based. The conditions noted are these: H188, 24 h. On the procedure: as §1
Data set [9] relates to E. coli ATCC25922. It is filed as cell-based. The conditions noted are these: ATCC25922, 24 h. On the procedure: as §1
Setting [10] is: PC/PG (7:3, w/w) vesicles versus HEPES buffer, lipid:peptide 50:1, peptide 2 μM.
[11] abbreviates: PC/PG (7:3, w/w) vesicles, lipid and peptide in a molar ratio of 50:1, peptide 2 μM, lipid 100 μM.
Setting [12] is: PC/cholesterol (8:1, w/w) vesicles versus HEPES buffer, peptide 2 μM, lipid 100 μM.
[13] abbreviates: PC/cholesterol (8:1, w/w) vesicles, peptide 2 μM, lipid 100 μM.

Regarding “Ac-KWKSFLKTFKSAKKTALHTALKAISS-NH2 [Peptide V16A]”, the “tR, retention time during RP-HPLC (relative hydrophobicity)” value (shortened to “tR … (relative hydrophobicity)”) in data set [1] is given as 36.6 min. Also, in data set [2], the “[θ]222, mean residue molar ellipticity, benign” value is −3,057 degree·cm^2·dmol^−^1. The “[θ]222, mean residue molar ellipticity, 50% TFE” value in [2] is recorded as −28,769 degree·cm^2·dmol^−^1. Besides, in data set [2], the “% helix, 50% TFE” value is recorded as 95.7%. In [2], the “% helix, benign” value came out at 10.2%. Further, the MIC – broadly, the lowest concentration found to suppress growth – in data set [3] worked out at 4 µg/mL; in data set [6], 4 µg/mL; in data set [7], 1 µg/mL; in data set [8], 4 µg/mL; in data set [9] it was 2 µg/mL. Further, the results for the “Blue shift in emission maximum” value in data set [4] (setting [10]) and in data set [4] (setting [12]) were 22 nm and 1 nm, respectively. The “Tryptophan fluorescence emission maximum” value was 328 nm in data set [4] (setting [11]), 349 nm in data set [4] (setting [13]) and 350 nm in [5].
Take “Ac-KWKSFLKTFKSAKKTELHTALKAISS-NH2 [Peptide V16E]”: in data set [1], the “tR … (relative hydrophobicity)” value came out at 34.6 min. In addition, the “[θ]222, mean residue molar ellipticity, benign” value in data set [2] is given as −3,465 degree·cm^2·dmol^−^1. Besides, the “[θ]222, mean residue molar ellipticity, 50% TFE” value in data set [2] is −30,063 degree·cm^2·dmol^−^1. Further, the “% helix, 50% TFE” value in data set [2] is given as 100%. Besides, in [2], the “% helix, benign” value turned out to be 11.5%. The MIC in data set [3] worked out at 64 µg/mL; in [6], 125 µg/mL; in [7], 125 µg/mL; in data set [8], 64 µg/mL; in [9] it was 16 µg/mL. Moreover, the figures for the “Blue shift in emission maximum” value in data set [4] (setting [10]) and in [4] (setting [12]) were 17 nm and 1 nm, respectively. Besides, the figures for the “Tryptophan fluorescence emission maximum” value in [4] (setting [11]), in data set [4] (setting [13]) and in [5] were 333 nm, 349 nm and 350 nm, respectively.
“Ac-KWKSFLKTFKSAKKTGLHTALKAISS-NH2 [Peptide V16G]”: the “tR … (relative hydrophobicity)” value in data set [1] is 33.6 min. Moreover, the “[θ]222, mean residue molar ellipticity, benign” value in data set [2] was −2,839 degree·cm^2·dmol^−^1. Moreover, in data set [2], the “[θ]222, mean residue molar ellipticity, 50% TFE” value was −27,857 degree·cm^2·dmol^−^1. Further, the “% helix, 50% TFE” value in [2] worked out at 92.7%. Besides, in [2], the “% helix, benign” value is on record as 9.4%. Moreover, the MIC was 8 µg/mL in data set [3]; 32 µg/mL in data set [6]; 16 µg/mL in [7]; 8 µg/mL in [8]; 8 µg/mL in data set [9]. Moreover, the “Blue shift in emission maximum” value in [4] (setting [10]) worked out at 21 nm; in data set [4] (setting [12]) it was 1 nm. Further, the “Tryptophan fluorescence emission maximum” value in data set [4] (setting [11]) is 329 nm; in data set [4] (setting [13]), 349 nm; in [5] it was 350 nm.
For the substance “Ac-KWKSFLKTFKSAKKTLLHTALKAISS-NH2 [Peptide V16L]”, the “tR … (relative hydrophobicity)” value in data set [1] is 40.4 min. Besides, in data set [2], the “[θ]222, mean residue molar ellipticity, benign” value is reported as −3,595 degree·cm^2·dmol^−^1. Moreover, in data set [2], the “[θ]222, mean residue molar ellipticity, 50% TFE” value was −29,803 degree·cm^2·dmol^−^1. In addition, the “% helix, 50% TFE” value in data set [2] stood at 99.1%. The “% helix, benign” value in data set [2] amounted to 12.0%. Besides, the MIC in data set [3] worked out at 4 µg/mL; in data set [6], 2 µg/mL; in [7], 1 µg/mL; in data set [8], 2 µg/mL; in data set [9], 1 µg/mL. Also, the “Blue shift in emission maximum” value in data set [4] (setting [10]) was 23 nm; in [4] (setting [12]), 2 nm. Moreover, the “Tryptophan fluorescence emission maximum” value in [4] (setting [11]) was found to be 326 nm; in [4] (setting [13]) it was 348 nm; in [5], 350 nm.
Consider “Ac-KWKSFLKTFKSAKKTSLHTALKAISS-NH2 [Peptide V16S]”, for which, in [1], the “tR … (relative hydrophobicity)” value is 34.3 min. The “[θ]222, mean residue molar ellipticity, benign” value in data set [2] is reported as −1,760 degree·cm^2·dmol^−^1. Moreover, the “[θ]222, mean residue molar ellipticity, 50% TFE” value in [2] is recorded as −28,949 degree·cm^2·dmol^−^1. Further, the “% helix, 50% TFE” value in data set [2] was determined as 96.3%. Further, the “% helix, benign” value in data set [2] was determined as 5.9%. The MIC in data set [3] came out at 8 µg/mL; in data set [6], 32 µg/mL; in [7], 16 µg/mL; in data set [8], 4 µg/mL; in data set [9] it was 8 µg/mL. The “Blue shift in emission maximum” value in [4] (setting [10]) stood at 22 nm; in data set [4] (setting [12]), 1 nm. The “Tryptophan fluorescence emission maximum” value in [4] (setting [11]) is on record as 328 nm; in data set [4] (setting [13]), 349 nm; in data set [5], 350 nm.
